*1 amine or outer side, *2 acyl side, *3 side chain or, on linkers, in order; H or OH if unused. Where a SMILES comes first, the peptide text is derived from it. Bridges are numbered along the chain shown (N, C = ends). [ ]: non-standard residue; d: D form. The star is where a group is joined. hPhe(3-Cl-4-CF3) = N[C@@H](CCc1ccc(C(F)(F)F)c(Cl)c1)C(=O)O; NPrPhe(4-CF3) = CCCN[C@@H](Cc1ccc(C(F)(F)F)cc1)C(=O)O; Pro(4-spirocPr) = O=C(O)[C@@H]1CC2(CC2)CN1; Morpholine(3S-CO) = O=C(O)[C@@H]1COCCN1; Pip(4,4-F2) = O=C(O)[C@@H]1CC(F)(F)CCN1; NMeGly(cPent) = CN[C@H](C(=O)O)C1CCCC1; Gly(cPent) = N[C@H](C(=O)O)C1CCCC1; Hyp = O=C(O)[C@@H]1C[C@@H](O)CN1; Gly(cBu) = N[C@H](C(=O)O)C1CCC1; NMeD = CN[C@@H](CC(=O)O)C(=O)O; NMeL = CN[C@@H](CC(C)C)C(=O)O; X12 = N#CCN(CC(=O)[*:2])[*:1]; Pip = O=C(O)[C@@H]1CCCCN1; Morpholide = C1CN(*)CCO1; NMeA = CN[C@@H](C)C(=O)O; Ac5c = NC1(C(=O)O)CCCC1; Aze = O=C(O)[C@@H]1CCN1; NcPrGly = O=C(O)CNC1CC1; NPrGly = CCCNCC(=O)O; Sar = CNCC(=O)O
Key:
[1] = molecular target: GDP-bound KRAS wild-type protein (Homo sapiens, UniProt P01116); experiment: Binding to KRAS by surface plasmon resonance (SPR), Single Cycle Kinetics; conditions: SPR Single Cycle Kinetics, GDP-bound KRAS wild-type protein, 1:1 binding model; read-out: KRAS KD
[2] = molecular target: GDP-bound NRAS wild-type protein (Homo sapiens, UniProt P01111); experiment: Binding to NRAS by surface plasmon resonance (SPR), Single Cycle Kinetics; conditions: SPR, GDP-bound NRAS wild-type protein vs GDP-bound KRAS wild-type protein
[3] = molecular target: GDP-bound HRAS wild-type protein (Homo sapiens, UniProt P01112); experiment: Binding to HRAS by surface plasmon resonance (SPR), Single Cycle Kinetics; conditions: SPR, GDP-bound HRAS wild-type protein vs GDP-bound KRAS wild-type protein
Chain of GDP-bound HRAS wild-type protein (P01112 whole entry): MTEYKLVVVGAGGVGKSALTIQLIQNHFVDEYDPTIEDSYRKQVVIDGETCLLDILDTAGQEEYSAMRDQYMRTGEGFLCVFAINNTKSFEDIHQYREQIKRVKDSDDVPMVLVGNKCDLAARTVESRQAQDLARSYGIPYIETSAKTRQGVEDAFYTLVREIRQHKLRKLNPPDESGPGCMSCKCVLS

Chain of GDP-bound NRAS wild-type protein (P01111 whole entry): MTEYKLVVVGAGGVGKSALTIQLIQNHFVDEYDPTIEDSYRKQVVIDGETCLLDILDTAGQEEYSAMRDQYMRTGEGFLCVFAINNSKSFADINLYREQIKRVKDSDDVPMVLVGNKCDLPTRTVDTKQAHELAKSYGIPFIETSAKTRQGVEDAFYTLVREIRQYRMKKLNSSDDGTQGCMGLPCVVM
Chain of GDP-bound KRAS wild-type protein (P01116 whole entry): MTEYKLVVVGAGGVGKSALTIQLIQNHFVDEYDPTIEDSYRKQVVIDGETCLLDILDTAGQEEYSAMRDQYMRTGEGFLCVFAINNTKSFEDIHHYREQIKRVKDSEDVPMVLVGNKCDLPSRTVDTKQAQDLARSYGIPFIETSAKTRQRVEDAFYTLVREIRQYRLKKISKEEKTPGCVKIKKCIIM

SMILES | Kd [1] [nM] | NRAS/KRAS (ratio of KD value for NRAS to KD value for KRAS) [2] | HRAS/KRAS (ratio of KD value for HRAS to KD value for KRAS) [3]
CCCN1C(=O)[C@@H]2CCN2C(=O)[C@H](C)N(C)C(=O)[C@H](C2CCC2)NC(=O)[C@H](CC(C)C)N(C)C(=O)C[C@@H](C(=O)N2CCOCC2)N(C)C(=O)[C@H](C2CCCC2)N(C)C(=O)C2(CCCC2)NC(=O)[C@@H]2CCCN2C(=O)[C@H](CCc2ccc(C(F)(F)F)c(Cl)c2)NC(=O)CN(C)C(=O)[C@@H]1Cc1ccc(C(F)(F)F)cc1 [PP0271] ([NMeL][Gly(cBu)][NMeA][Aze][NPrPhe(4-CF3)][Sar][hPhe(3-Cl-4-CF3)]P[Ac5c][NMeGly(cPent)][NMeD]-Morpholide; lactam N-11) | 0.22 | C (A compound having a KD ratio of 0.1 or more and less than 3 is denoted as C) | B (a compound having 3 or more and less than 10 is denoted as B)
CCCN1C(=O)[C@@H]2CCN2C(=O)[C@H](C)N(C)C(=O)[C@H](C2CCCC2)NC(=O)[C@H](CC(C)C)N(C)C(=O)C[C@@H](C(=O)N2CCOCC2)N(C)C(=O)[C@H](C2CCCC2)N(C)C(=O)C2(CCCC2)NC(=O)[C@@H]2CCCN2C(=O)[C@H](CCc2ccc(C(F)(F)F)c(Cl)c2)NC(=O)CN(C)C(=O)[C@@H]1Cc1ccc(C(F)(F)F)cc1 [PP0272] ([NMeL][Gly(cPent)][NMeA][Aze][NPrPhe(4-CF3)][Sar][hPhe(3-Cl-4-CF3)]P[Ac5c][NMeGly(cPent)][NMeD]-Morpholide; lactam N-11) | 0.17 | C (A compound having a KD ratio of 0.1 or more and less than 3 is denoted as C) | B (a compound having 3 or more and less than 10 is denoted as B)
CCCN1C(=O)[C@@H]2CCN2C(=O)CN(C2CC2)C(=O)[C@H]([C@@H](C)CC)NC(=O)[C@H](CC(C)C)N(C)C(=O)C[C@@H](C(=O)N2CCOCC2)N(C)C(=O)[C@H](C2CCCC2)N(C)C(=O)C2(CCCC2)NC(=O)[C@@H]2CCCN2C(=O)[C@H](CCc2ccc(C(F)(F)F)c(Cl)c2)NC(=O)CN(C)C(=O)[C@@H]1Cc1ccc(C(F)(F)F)cc1 [PP0273] ([NMeL]I[NcPrGly][Aze][NPrPhe(4-CF3)][Sar][hPhe(3-Cl-4-CF3)]P[Ac5c][NMeGly(cPent)][NMeD]-Morpholide; lactam N-11) | 0.56 | C (A compound having a KD ratio of 0.1 or more and less than 3 is denoted as C) | B (a compound having 3 or more and less than 10 is denoted as B)
CCCN1CC(=O)N2CC[C@H]2C(=O)N(CCC)[C@@H](Cc2ccc(C(F)(F)F)cc2)C(=O)N(C)CC(=O)N[C@@H](CCc2ccc(C(F)(F)F)c(Cl)c2)C(=O)N2CCC[C@H]2C(=O)NC2(CCCC2)C(=O)N(C)[C@@H](C2CCCC2)C(=O)N(C)[C@H](C(=O)N2CCOCC2)CC(=O)N(C)[C@@H](CC(C)C)C(=O)N[C@@H]([C@@H](C)CC)C1=O [PP0274] ([NMeL]I[NPrGly][Aze][NPrPhe(4-CF3)][Sar][hPhe(3-Cl-4-CF3)]P[Ac5c][NMeGly(cPent)][NMeD]-Morpholide; lactam N-11) | 0.47 | C (A compound having a KD ratio of 0.1 or more and less than 3 is denoted as C) | B (a compound having 3 or more and less than 10 is denoted as B)
CCCN1C(=O)[C@@H]2CCN2C(=O)CN(CC#N)C(=O)[C@H]([C@@H](C)CC)NC(=O)[C@H](CC(C)C)N(C)C(=O)C[C@@H](C(=O)N2CCOCC2)N(C)C(=O)[C@H](C2CCCC2)N(C)C(=O)C2(CCCC2)NC(=O)[C@@H]2CCCN2C(=O)[C@H](CCc2ccc(C(F)(F)F)c(Cl)c2)NC(=O)CN(C)C(=O)[C@@H]1Cc1ccc(C(F)(F)F)cc1 [PP0275] ([NMeL]I[X12][Aze][NPrPhe(4-CF3)][Sar][hPhe(3-Cl-4-CF3)]P[Ac5c][NMeGly(cPent)][NMeD]-Morpholide; lactam N-11) | 0.3 | C (A compound having a KD ratio of 0.1 or more and less than 3 is denoted as C) | C (A compound having a KD ratio of 0.1 or more and less than 3 is denoted as C)
CCCN1C(=O)[C@@H]2CCN2C(=O)[C@H](C)N(C)C(=O)[C@H]([C@@H](C)CC)NC(=O)[C@H](CC(C)C)N(C)C(=O)C[C@@H](C(=O)N2CCOCC2)N(C)C(=O)[C@H](C2CCCC2)N(C)C(=O)C2(CCCC2)NC(=O)[C@@H]2CCN2C(=O)[C@H](CCc2ccc(C(F)(F)F)c(Cl)c2)NC(=O)CN(C)C(=O)[C@@H]1Cc1ccc(C(F)(F)F)cc1 [PP0281] ([NMeL]I[NMeA][Aze][NPrPhe(4-CF3)][Sar][hPhe(3-Cl-4-CF3)][Aze][Ac5c][NMeGly(cPent)][NMeD]-Morpholide; lactam N-11) | 0.48 | C (A compound having a KD ratio of 0.1 or more and less than 3 is denoted as C) | C (A compound having a KD ratio of 0.1 or more and less than 3 is denoted as C)

Now from value to compound, other results behind:

Kd [1] [nM] | SMILES | NRAS/KRAS (ratio of KD value for NRAS to KD value for KRAS) [2] | HRAS/KRAS (ratio of KD value for HRAS to KD value for KRAS) [3]
0.11 | CCCN1C(=O)[C@@H]2CCN2C(=O)[C@H](C)N(C)C(=O)[C@H]([C@@H](C)CC)NC(=O)[C@H](CC(C)C)N(C)C(=O)C[C@@H](C(=O)N2CCOCC2)N(C)C(=O)[C@H](C2CCCC2)N(C)C(=O)C2(CCCC2)NC(=O)[C@@H]2CC3(CC3)CN2C(=O)[C@H](CCc2ccc(C(F)(F)F)c(Cl)c2)NC(=O)CN(C)C(=O)[C@@H]1Cc1ccc(C(F)(F)F)cc1 [PP0282] ([NMeL]I[NMeA][Aze][NPrPhe(4-CF3)][Sar][hPhe(3-Cl-4-CF3)][Pro(4-spirocPr)][Ac5c][NMeGly(cPent)][NMeD]-Morpholide; lactam N-11) | C (A compound having a KD ratio of 0.1 or more and less than 3 is denoted as C) | C (A compound having a KD ratio of 0.1 or more and less than 3 is denoted as C)
0.063 | CCCN1C(=O)[C@@H]2CCN2C(=O)[C@H](C)N(C)C(=O)[C@H]([C@@H](C)CC)NC(=O)[C@H](CC(C)C)N(C)C(=O)C[C@@H](C(=O)N2CCOCC2)N(C)C(=O)[C@H](C2CCCC2)N(C)C(=O)C2(CCCC2)NC(=O)[C@@H]2C[C@@H](OC)CN2C(=O)[C@H](CCc2ccc(C(F)(F)F)c(Cl)c2)NC(=O)CN(C)C(=O)[C@@H]1Cc1ccc(C(F)(F)F)cc1 [PP0283] ([NMeL]I[NMeA][Aze][NPrPhe(4-CF3)][Sar][hPhe(3-Cl-4-CF3)][Hyp](Me)[Ac5c][NMeGly(cPent)][NMeD]-Morpholide; lactam N-11) | C (A compound having a KD ratio of 0.1 or more and less than 3 is denoted as C) | C (A compound having a KD ratio of 0.1 or more and less than 3 is denoted as C)
0.67 | CCCN1C(=O)[C@@H]2CCN2C(=O)[C@H](C)N(C)C(=O)[C@H]([C@@H](C)CC)NC(=O)[C@H](CC(C)C)N(C)C(=O)C[C@@H](C(=O)N2CCOCC2)N(C)C(=O)[C@H](C2CCCC2)N(C)C(=O)C2(CCCC2)NC(=O)[C@@H]2CCCCN2C(=O)[C@H](CCc2ccc(C(F)(F)F)c(Cl)c2)NC(=O)CN(C)C(=O)[C@@H]1Cc1ccc(C(F)(F)F)cc1 [PP0284] ([NMeL]I[NMeA][Aze][NPrPhe(4-CF3)][Sar][hPhe(3-Cl-4-CF3)][Pip][Ac5c][NMeGly(cPent)][NMeD]-Morpholide; lactam N-11) | C (A compound having a KD ratio of 0.1 or more and less than 3 is denoted as C) | B (a compound having 3 or more and less than 10 is denoted as B)
0.75 | CCCN1C(=O)[C@@H]2CCN2C(=O)[C@H](C)N(C)C(=O)[C@H]([C@@H](C)CC)NC(=O)[C@H](CC(C)C)N(C)C(=O)C[C@@H](C(=O)N2CCOCC2)N(C)C(=O)[C@H](C2CCCC2)N(C)C(=O)C2(CCCC2)NC(=O)[C@@H]2CC(F)(F)CCN2C(=O)[C@H](CCc2ccc(C(F)(F)F)c(Cl)c2)NC(=O)CN(C)C(=O)[C@@H]1Cc1ccc(C(F)(F)F)cc1 [PP0285] ([NMeL]I[NMeA][Aze][NPrPhe(4-CF3)][Sar][hPhe(3-Cl-4-CF3)][Pip(4,4-F2)][Ac5c][NMeGly(cPent)][NMeD]-Morpholide; lactam N-11) | C (A compound having a KD ratio of 0.1 or more and less than 3 is denoted as C) | B (a compound having 3 or more and less than 10 is denoted as B)
0.52 | CCCN1C(=O)[C@@H]2CCN2C(=O)[C@H](C)N(C)C(=O)[C@H]([C@@H](C)CC)NC(=O)[C@H](CC(C)C)N(C)C(=O)C[C@@H](C(=O)N2CCOCC2)N(C)C(=O)[C@H](C2CCCC2)N(C)C(=O)C2(CCCC2)NC(=O)[C@@H]2COCCN2C(=O)[C@H](CCc2ccc(C(F)(F)F)c(Cl)c2)NC(=O)CN(C)C(=O)[C@@H]1Cc1ccc(C(F)(F)F)cc1 [PP0286] ([NMeL]I[NMeA][Aze][NPrPhe(4-CF3)][Sar][hPhe(3-Cl-4-CF3)][Morpholine(3S-CO)][Ac5c][NMeGly(cPent)][NMeD]-Morpholide; lactam N-11) | C (A compound having a KD ratio of 0.1 or more and less than 3 is denoted as C) | B (a compound having 3 or more and less than 10 is denoted as B)
0.26 | CCCN1C(=O)[C@@H]2CCN2C(=O)[C@H](C)N(C)C(=O)[C@H]([C@@H](C)CC)NC(=O)[C@H](CC(C)C)N(C)C(=O)C[C@@H](C(=O)N2CCOCC2)N(C)C(=O)[C@H](C2CCCC2)N(C)C(=O)C2(CCCC2)NC(=O)CN(C)C(=O)[C@H](CCc2ccc(C(F)(F)F)c(Cl)c2)NC(=O)CN(C)C(=O)[C@@H]1Cc1ccc(C(F)(F)F)cc1 [PP0287] ([NMeL]I[NMeA][Aze][NPrPhe(4-CF3)][Sar][hPhe(3-Cl-4-CF3)][Sar][Ac5c][NMeGly(cPent)][NMeD]-Morpholide; lactam N-11) | C (A compound having a KD ratio of 0.1 or more and less than 3 is denoted as C) | C (A compound having a KD ratio of 0.1 or more and less than 3 is denoted as C)
